Laboratory results from patent US11555210B2, “Microbe having increased tolerance to phenolic fermentation inhibitors” (University of Ottawa, priority 2018, dated 2023).

Key:
[1] = test system: wild-type cells expressing PEX3-RFP, SEC13-RFP or CIT1-RFP; experiment: co-localization of ROS signal with organelle markers; type: cell-based, S. cerevisiae
Source text: For co-localization studies, images were obtained as Z-stacks. Co-localization of the fluorescence signals were quantified using the IMARIS software 9.2.1 (Bitplane; http://www.bitplane.com) and a Manders' overlap co-efficient (Manders et al., 1993, Journal of Microscopy. 169, 375-382) was used to evaluate the fraction of RFP pixels (organelle marker) also positive for GFP pixels ([…]). The closer the value is to one, the higher the level of co-localization. The analysis was complemented by performing an object-based quantification where the percentage volume of ROS that localized to the mitochondria and endoplasmic reticulum was measured.

[2] = test system: Sol2-GFP, Sol3-GFP and Rpe1-GFP; experiment: fluorescence microscopy of GFP-tagged pentose phosphate pathway proteins; type: cell-based, S. cerevisiae; conditions: 2 mM coniferyl aldehyde
Zwf1-GFP = Zwf1-GFP fluorescence microscopy; type: cell-based, S. cerevisiae
Procedure: For the microscopy studies, wild type cells expressing endogenously tagged Zwf1-GFP (YKB4825) were grown to mid log in YPD, prior to being washed and resuspended in YPD medium (Untreated) or YPD medium containing 2 mM coniferyl aldehyde (CA) for 120 min at 30° C. Images (FIG. 8A) are representative of three independent experiments where a minimum of 100 cells each were imaged. Scale bar represents 10 μm.

zwf1Δ strains = experiment: ROS measurement by H2DCFDA fluorescence microscopy; type: cell-based, S. cerevisiae; conditions: 2 mM coniferyl aldehyde; ρ=0.012
Procedure: For all microscopy experiments overnight cultures of wild-type yeast grown at 30° C. were re-suspended at an OD600 of 0.1 in YPD medium and allowed to reach mid-log phase prior to imaging. Measurement of ROS was performed as previously described (Kennedy et al., 2016, Sci Rep. 6, 19332). Briefly cells were incubated with 10 μM 2′,7′-dichlorodihydrofluorescein diacetate (H2DCFDA; Invitrogen cat. #D399) for 15 min in the dark. Cells were washed in sterile PBS to remove traces of the dye after which they were re-suspended in YPD medium alone, or YPD supplemented with either 2 mM coniferyl aldehyde, 10 mM ferulic acid or 50 mM 4-hydroxybenzoic acid or hydrogen peroxide for 1 hour at 30° C. […]
Analysis of H2DCFDA fluorescence was performed using Velocity Software V4 (Perkin Elmer). Image J software was used to quantify the H2DCFDA fluorescence signal in cells as described by Schneider et al (Schneider et al., 2012, Nature Methods, 9, 671-675) with a slight modification. Briefly, background fluorescence was subtracted from the images and the total fluorescence of all the cells in the image was measured and divided by the number of cells in the image. […] The ratio of fluorescence per cell of treated cultures was divided by that of untreated cultures to eliminate background endogenous ROS production. […]

[3] = test system: Saccharomyces cerevisiae ethanol red; conditions: commercial Saccharomyces cerevisiae ethanol red; Adeboye et al., 2014; cited from earlier work
wild-type yeast (BY4741) = experiment: ROS measurement by H2DCFDA fluorescence microscopy; type: cell-based, S. cerevisiae; conditions: 2 mM CA, 10 mM FA or 50 mM 4-HBA, 1 hour at 30° C.
Procedure: Measurement of ROS was performed as previously described (Kennedy et al., 2016, Sci Rep. 6, 19332). Briefly cells were incubated with 10 μM 2′,7′-dichlorodihydrofluorescein diacetate (H2DCFDA; Invitrogen cat. #D399) for 15 min in the dark. […] An aliquot of 5 μL was spotted onto glass slides and covered with a cover slip prior to imaging. All images were acquired using a Leica DMI 6000 florescent microscope (Leica Microsystems GmbH, Wetzler Germany), equipped with a Sutter DG4 light source (Sutter Instruments, California, USA), Ludl emission filter wheel with Chroma band pass emission filters (Ludl Electronic Products Ltd., NY, USA) and Hamamatsu Orca AG camera (Hamamatsu Photonics, Herrsching am Ammersee, Germany). Images were acquired at 0.2 μm steps across 6 μm using a 63× oil-immersion objective with a 1.4 numerical aperture. Analysis of H2DCFDA fluorescence was performed using Velocity Software V4 (Perkin Elmer). Image J software was used to quantify the H2DCFDA fluorescence signal in cells as described by Schneider et al (Schneider et al., 2012, Nature Methods, 9, 671-675) with a slight modification. Briefly, background fluorescence was subtracted from the images and the total fluorescence of all the cells in the image was measured and divided by the number of cells in the image. The images contained a minimum of 100 cells. The ratio of fluorescence per cell of treated cultures was divided by that of untreated cultures to eliminate background endogenous ROS production.

[4] = 2 mM coniferyl aldehyde, object-based analysis

## COc1cc(C=CC=O)ccc1O [coniferyl aldehyde, 4-hydroxy-3-methoxycinnamaldehyde]
[1]; 2 mM coniferyl aldehyde
  Manders' overlap co-efficient, ROS with ER marker SEC13-RFP: 0.13±0.1
  Manders' overlap co-efficient, ROS with mitochondria marker CIT1-RFP: 0.45±0.04
[1]; [4]
  percentage volume of ROS that localized to the mitochondria: 54.1±17.29%
  total volume of ROS that localized to the ER: 26.5±12.8%
[1]; 2 mM coniferyl aldehyde, peroxisome marker PEX3-RFP
  localization of ROS to peroxisomes: did not localize to the peroxisomes
[1]; after 2 hours of coniferyl aldehyde treatment
  mitochondrial fragmentation: high degree of mitochondrial fragmentation
[2]
  localization of Sol2-GFP, Sol3-GFP and Rpe1-GFP signal: concentration of signal into punctate structures
Zwf1-GFP; 2 mM CA for 120 min at 30° C. (ρ=9.69E-5), ferulic acid 10 mM
  Zwf1-GFP fluorescence signal/cell: significant increase
Zwf1-GFP; 2 mM coniferyl aldehyde, 2 hours
  Zwf1-GFP localization: punctuate localization
zwf1Δ strains
  ROS signal in zwf1Δ compared to wild-type: over two-fold induction
[3]
  concentration at which the compound kills the yeast: 1 mM
wild-type yeast (BY4741)
  subcellular distribution of induced ROS: formed punctate structures within the cell
